Experimental data published in ChEMBL document CHEMBL4266049, “A Steroid-Type Antioxidant Targeting the Keap1/Nrf2/ARE Signaling Pathway from the Soft Coral Dendronephthya gigantea” (J Nat Prod, 2018).
The source made the active and inactive calls. No cut-off for these calls is given here.

Legend:
PC-12 [1] = experiment: Cytotoxicity against rat PC12 cells assessed as reduction in cell viability at 10 uM after 24 hrs by MTT assay; assay type: cell-based; conditions: pc-12, 24 h
PC-12 [2] = experiment: Cytoprotective activity against H2O2-induced oxidative injury in rat PC12 cells assessed as […] in cell viability at 10 uM pretreated for 24 hrs followed by 350 uM H2O2 challenge measured after 24 hrs by MTT assay; assay type: functional, cell-based
PC-12 [3] = experiment: Cytoprotective activity against H2O2-induced oxidative injury in rat PC12 cells assessed as cell viability at 10 uM pretreated for 24 hrs followed by 350 uM H2O2 challenge measured after 24 hrs by MTT assay (reference value: 60%); assay type: functional
PC-12 [4] = experiment: Cytoprotective activity against H2O2-induced oxidative injury in rat PC12 cells assessed as […] in cell viability at 10 uM pretreated for 24 hrs followed by 500 uM H2O2 challenge measured after 24 hrs by MTT assay; assay type: functional, cell-based
PC-12 [5] = experiment: Cytoprotective activity against H2O2-induced oxidative injury in rat PC12 cells assessed as increase in colony formation at 1 to 2 uM pretreated for 24 hrs followed by H2O2 challenge by crystal violet staining based assay; assay type: functional, cell-based
PC-12 [6] = experiment: Cytoprotective activity against H2O2-induced oxidative injury in rat PC12 cells assessed as decrease in LDH release after 24 hrs; assay type: functional, cell-based
PC-12 [7] = experiment: Cytoprotective activity against H2O2-induced oxidative injury in rat PC12 cells assessed as inhibition of MDA production pretreated for 24 hrs followed by H2O2 challenge measured after 16 hrs; assay type: functional, cell-based
PC-12 [8] = experiment: Cytoprotective activity against H2O2-induced oxidative injury in rat PC12 cells assessed as reduction in intracellular reactive oxygen species formation pretreated for 24 hrs followed by H2O2 challenge measured after 3 hrs by DCFH-DA dye based fluorescence microscopic analysis; assay type: functional, cell-based
[9] = biological target: T1, KEAP1/NRF2 (Rattus norvegicus) (UniProt O54968+P57790); experiment: Inhibition of Keap1/Nrf2 signaling in rat PC12 cells assessed as induction of nuclear translocation at 10 uM after 6 hrs by DAPI staining based fluorescence microscopic analysis; assay type: cell-based
[10] = biological target: T1, KEAP1/NRF2 (Rattus norvegicus); experiment: Inhibition of Keap1/Nrf2 signaling in rat PC12 cells assessed as induction of ARE by measuring increase in HO-1 expression after 24 hrs by Western blot analysis; assay type: cell-based
PC-12 [11] = experiment: Cytoprotective activity against H2O2-induced oxidative injury in rat PC12 cells harboring siRNA assessed as increase in cell viability at 10 uM pretreated for 24 hrs followed by H2O2 challenge measured after 24 hrs by MTT assay; assay type: functional, cell-based
PC-12 [12] = experiment: Cytoprotective activity against H2O2-induced oxidative injury in rat PC12 cells harboring siRNA assessed as increase in colony formation at 2 uM pretreated for 24 hrs followed by H2O2 challenge by crystal violet staining based assay; assay type: functional, cell-based
PC-12 [13] = experiment: Cytoprotective activity against H2O2-induced oxidative injury in rat PC12 cells harboring Nrf2 siRNA assessed as increase in cell viability at 10 uM pretreated for 24 hrs followed by H2O2 challenge measured after 24 hrs by MTT assay; assay type: functional, cell-based
PC-12 [14] = experiment: Cytoprotective activity against H2O2-induced oxidative injury in rat PC12 cells harboring Nrf2 siRNA assessed as increase in colony formation at 2 uM pretreated for 24 hrs followed by H2O2 challenge by crystal violet staining based assay; assay type: functional, cell-based
PC-12 [15] = experiment: Cytoprotective activity against H2O2-induced oxidative injury in rat PC12 cells assessed as increase in colony formation at 5 uM pretreated for 24 hrs followed by H2O2 challenge by crystal violet staining based assay; assay type: functional, cell-based
PC-12 [16] = experiment: Cytoprotective activity against H2O2-induced oxidative injury in rat PC12 cells assessed as inhibition of MDA production at 10 uM pretreated for 24 hrs followed by H2O2 challenge measured after 16 hrs; assay type: functional, cell-based
PC-12 [17] = experiment: Cytoprotective activity against H2O2-induced oxidative injury in rat PC12 cells assessed as reduction in intracellular reactive oxygen species formation at 10 uM pretreated for 24 hrs followed by H2O2 challenge measured after 3 hrs by DCFH-DA dye based fluorescence microscopic analysis; assay type: functional, cell-based
[18] = biological target: T1, KEAP1/NRF2 (Rattus norvegicus); experiment: Inhibition of Keap1/Nrf2 signaling in rat PC12 cells assessed as induction of ARE by measuring increase in HO-1 expression at 10 uM after 24 hrs by Western blot analysis; assay type: cell-based

| Compound | Activity (PC-12 [1]) | Activity (PC-12 [2]) | further results |
| --- | --- | --- | --- |
| C=C(CC[C@@H](C)[C@H]1CC[C@H]2[C@@H]3C(=O)[C@H]4O[C@]45C[C@@H](O)CC[C@]5(CO)[C@H]3CC[C@]12C)C(C)C | Non-Toxic | inactive | – |
| C=C(CC[C@@H](C)[C@H]1CC[C@H]2[C@@H]3C(=O)C=C4C[C@@H](O)CC[C@]4(COC(C)=O)[C@H]3CC[C@]12C)C(C)C | Non-Toxic | – | Activity (PC-12 [3]): 70%; Activity (PC-12 [4]): Active; Activity (PC-12 [5]): Active; Activity (PC-12 [6]): Dose-dependent effect; inhibition (PC-12 [7]): Dose-dependent effect; Activity (PC-12 [8]): Dose-dependent effect; inhibition [9]: Active; inhibition [10]: Dose-dependent effect; Activity (PC-12 [11]): Active; Activity (PC-12 [12]): Active; Activity (PC-12 [13]): inactive; Activity (PC-12 [14]): inactive |
| C=C(CC[C@@H](C)[C@H]1CC[C@H]2[C@@H]3[C@@H](O)C=C4C[C@@H](O)CC[C@]4(C)[C@H]3CC[C@]12C)C(C)C | Non-Toxic | inactive | – |
| C=C(CC[C@@H](C)[C@H]1CC[C@H]2[C@@H]3C(=O)[C@H]4O[C@]45C[C@@H](O)CC[C@]5(COC(C)=O)[C@H]3CC[C@]12C)C(C)C | Non-Toxic | inactive | – |
| C=C(/C=C/[C@@H](C)[C@H]1CC[C@H]2[C@@H]3[C@@H](OC(C)=O)C=C4C[C@@H](O)CC[C@]4(CO)[C@H]3CC[C@]12C)C(C)C | Non-Toxic | inactive | – |
| C=C(CC[C@@H](C)[C@H]1CC[C@H]2[C@@H]3C(=O)[C@H]4O[C@]45C[C@@H](O)CC[C@]5(COC(C)=O)[C@H]3[C@H](OC(C)=O)C[C@]12C)C(C)C | Non-Toxic | inactive | – |
| CC(C)CCC[C@@H](C)[C@H]1CC[C@H]2[C@@H]3C(=O)C=C4C[C@@H](O)CC[C@]4(C)[C@H]3CC[C@]12C | – | Active | – |
| CC(C)(C)c1cc(O)ccc1O | – | – | Activity (PC-12 [4]): Active; Activity (PC-12 [15]): Active; inhibition (PC-12 [16]): Active; Activity (PC-12 [17]): Active; inhibition [18]: Active |
| C=C(CC[C@@H](C)[C@H]1CC[C@@H]2[C@]1(C)C[C@H](O)[C@@H]1[C@@]3(C)C[C@H](O)[C@H](O)[C@@H](C)[C@@H]3CC(=O)[C@@]21O)C(C)C | Non-Toxic | inactive | – |
| C=C(/C=C/[C@@H](C)[C@H]1CC[C@@H]2[C@]1(C)C[C@H](O)[C@@H]1[C@@]3(C)C[C@H](O)[C@H](O)[C@@H](C)[C@@H]3CC(=O)[C@@]21O)C(C)C | Non-Toxic | inactive | – |
| CC(=O)O[C@H]1C=C2C[C@@H](O)CC[C@]2(CO)[C@H]2CC[C@]3(C)[C@@H]([C@H](C)CCCC(C)C)CC[C@H]3[C@H]12 | Non-Toxic | inactive | – |
| CC(C)CCC[C@@H](C)[C@H]1CC[C@H]2[C@@H]3[C@H](O)CC4=CC(=O)CC[C@]4(C)[C@H]3CC[C@]12C | – | Active | – |
| C=C(CC[C@@H](C)[C@H]1CC[C@H]2[C@@H]3[C@H](O)C=C4C[C@@H](O)CC[C@]4(COC(C)=O)[C@H]3CC[C@]12C)C(C)C | Non-Toxic | – | Activity (PC-12 [3]): 70%; Activity (PC-12 [4]): inactive |
| C=C(/C=C/[C@@H](C)[C@H]1CC[C@H]2[C@@H]3C(=O)[C@H]4O[C@]45C[C@@H](O)CC[C@]5(COC(C)=O)[C@H]3CC[C@]12C)C(C)C | Non-Toxic | inactive | – |
| C=C(CC[C@@H](C)[C@H]1CC[C@H]2[C@@H]3[C@@H](OC(C)=O)C=C4C[C@@H](O)CC[C@]4(CO)[C@H]3CC[C@]12C)C(C)C | Non-Toxic | inactive | – |
| CC(=O)O[C@H]1C=C2C[C@@H](O)CC[C@]2(CO)[C@H]2CC[C@]3(C)[C@@H]([C@H](C)/C=C/CC(C)C)CC[C@H]3[C@H]12 | Non-Toxic | inactive | – |
| C=C(CC[C@@H](C)[C@H]1CC[C@H]2[C@@H]3CC=C4C[C@@H](O)CC[C@]4(CO)[C@H]3CC[C@]12C)C(C)C | Non-Toxic | inactive | – |
| C=C(/C=C/[C@@H](C)[C@H]1CC[C@@H]2[C@]1(C)C[C@H](O)[C@@H]1[C@@]3(C)C[C@H](O)[C@H](OC(C)=O)[C@@H](C)[C@@H]3CC(=O)[C@@]21O)C(C)C | Non-Toxic | inactive | – |
